# Earlier results as cited in patent US20080176787A1, “Parathyroid hormone analogues and methods of use” (priority 2005, published 2008).
# Read-outs that look alike come from different tables or passages of the source. Marks after values point to notes of the source that are not given here.
# What was measured:
# rats = conditions: rat, in vivo; cited from earlier work
# monkey = conditions: cited from earlier work
# patients = conditions: cited from earlier work
# [1] = tested on: OVX adult Cynomolgus monkeys; conditions: Humerus Mid-Diaphysis, F, 18 months, cited from earlier work
# [2] = tested on: postmenopausal women (with prior vertebral fractures); conditions: cited from earlier work; for hypercalcemia seen at least once, % of subjects: average of 19 months (placebo 2%)
# [3] = tested on: OVX adult Cynomolgus monkeys; conditions: Femoral Neck, F, 18 months, cited from earlier work
# [4] = teriparatide 0, 0.5, 2, 10 μg/kg, 12 mth monkey
# [5] = 20 μg (6 months), inferred from graphed data
smiles,measurement,setting,value
"CC[C@H](C)[C@H](NC(=O)[C@H](CCC(=O)O)NC(=O)[C@H](CO)NC(=O)[C@@H](NC(=O)[C@@H](N)CO)C(C)C)C(=O)N[C@@H](CCC(N)=O)C(=O)N[C@@H](CC(C)C)C(=O)N[C@@H](CCSC)C(=O)N[C@@H](Cc1cnc[nH]1)C(=O)N[C@@H](CC(N)=O)C(=O)N[C@@H](CC(C)C)C(=O)NCC(=O)N[C@@H](CCCCN)C(=O)N[C@@H](Cc1cnc[nH]1)C(=O)N[C@@H](CC(C)C)C(=O)N[C@@H](CC(N)=O)C(=O)N[C@@H](CO)C(=O)N[C@@H](CCSC)C(=O)N[C@@H](CCC(=O)O)C(=O)N[C@@H](CCCN=C(N)N)C(=O)N[C@H](C(=O)N[C@@H](CCC(=O)O)C(=O)N[C@@H](Cc1c[nH]c2ccccc12)C(=O)N[C@@H](CC(C)C)C(=O)N[C@@H](CCCN=C(N)N)C(=O)N[C@@H](CCCCN)C(=O)N[C@@H](CCCCN)C(=O)N[C@@H](CC(C)C)C(=O)N[C@@H](CCC(N)=O)C(=O)N[C@@H](CC(=O)O)C(=O)N[C@H](C(=O)N[C@@H](Cc1cnc[nH]1)C(=O)N[C@@H](CC(N)=O)C(=O)N[C@@H](Cc1ccccc1)C(=O)O)C(C)C)C(C)C [Forteo, hPTH-(1-34)]",osteosarcoma in rats (warning label),rats,increase in incidence of osteosarcoma in rats
same,nephropathy,monkey; pre-clinical toxicity,induces a mineralizing nephropathy in monkeys and possibly rats
same,Free Ca,monkey; [4],Free Ca increased
same,serum neutralising antibodies,monkey; [4],detected all doses
same,tubulo-interstitial nephritis,monkey; [4],nephritis all doses;
same,NoAEL,"monkey; teriparatide, 12 mth monkey",<0.5 µg/kg
same,CTx,patients; [5],3300^2 pM/L
same,P1NP,patients; [5],71^2 μg/L
same,TH-BMD (%),patients; [5],0.6^2%
same,FN-BMD (%),patients; 20 μg (6 months),1.02%
same,LS-BMD (%),patients; 20 μg (6 months),5.2%
same,Mean [Ca],patients; 20 μg (6 months),0.075 mmol/L
same,Pts > 2.75 mmol/L,patients; in vivo,5
same,Pts > 2.75 mmol/L (sustained),patients; in vivo,2
same,% Cortical Porosity,[1]; 1 μg/kg/day,~15.0* %
same,% Cortical Porosity,[1]; 5 μg/kg/day,~25* %
same,Mean % Change In Femoral Neck (BMD),[2]; 20 μg for at least 12 Months,1.54%
same,Mean % Change In Total Hip (BMD),[2]; 20 μg for at least 12 Months,1.70%
same,Mean % Change In Trochanter (BMD),[2]; 20 μg for at least 12 Months,2.68%
same,"hypercalcemia seen at least once, % of subjects",[2]; 20 μg/day,11%
same,"hypercalcemia seen at least once, % of subjects",[2]; 40 μg/day,28%
same,BMD in distal and mid-shaft radius compared to placebo,[2]; Neer et al.,decrease in BMD
same,% Cortical Porosity,[3]; 1 μg/kg/day,8.5 ± 0.8 %
same,% Cortical Porosity,[3]; 5 μg/kg/day,8.9 ± 0.6 %
